Key:
[1] = Antioxidant activity assessed as hydroxyl radical scavenging activity at 0.1 mM; format: functional
[2] = test system: Radical scavenging activity; assay: Antioxidant activity assessed as DPPH radical scavenging activity at 0.05 mM after 60 mins; format: functional
[3] = test system: Radical scavenging activity; assay: Antioxidant activity assessed as DPPH radical scavenging activity at 0.1 mM after 60 mins; format: functional
[4] = test system: Radical scavenging activity; assay: Antioxidant activity assessed as DPPH radical scavenging activity at 0.1 mM after 20 mins; format: functional
[5] = test system: Radical scavenging activity; assay: Antioxidant activity assessed as DPPH radical scavenging activity at 0.05 mM after 20 mins; format: functional
Rattus norvegicus = assay: Antiinflammatory activity against carrageenan-induced paw edema rat model at 0.01 mmol/ml/kg; format: functional
[6] = Antioxidant activity assessed as superoxide radical scavenging activity at 0.1 mM by nitroblue tetrazolium method; format: functional
[7] = target: T1, Seed linoleate 13S-lipoxygenase-1 (Glycine max, UniProt P08170); assay: Inhibition of soybean lipoxygenase
T1 sequence (P08170 whole entry): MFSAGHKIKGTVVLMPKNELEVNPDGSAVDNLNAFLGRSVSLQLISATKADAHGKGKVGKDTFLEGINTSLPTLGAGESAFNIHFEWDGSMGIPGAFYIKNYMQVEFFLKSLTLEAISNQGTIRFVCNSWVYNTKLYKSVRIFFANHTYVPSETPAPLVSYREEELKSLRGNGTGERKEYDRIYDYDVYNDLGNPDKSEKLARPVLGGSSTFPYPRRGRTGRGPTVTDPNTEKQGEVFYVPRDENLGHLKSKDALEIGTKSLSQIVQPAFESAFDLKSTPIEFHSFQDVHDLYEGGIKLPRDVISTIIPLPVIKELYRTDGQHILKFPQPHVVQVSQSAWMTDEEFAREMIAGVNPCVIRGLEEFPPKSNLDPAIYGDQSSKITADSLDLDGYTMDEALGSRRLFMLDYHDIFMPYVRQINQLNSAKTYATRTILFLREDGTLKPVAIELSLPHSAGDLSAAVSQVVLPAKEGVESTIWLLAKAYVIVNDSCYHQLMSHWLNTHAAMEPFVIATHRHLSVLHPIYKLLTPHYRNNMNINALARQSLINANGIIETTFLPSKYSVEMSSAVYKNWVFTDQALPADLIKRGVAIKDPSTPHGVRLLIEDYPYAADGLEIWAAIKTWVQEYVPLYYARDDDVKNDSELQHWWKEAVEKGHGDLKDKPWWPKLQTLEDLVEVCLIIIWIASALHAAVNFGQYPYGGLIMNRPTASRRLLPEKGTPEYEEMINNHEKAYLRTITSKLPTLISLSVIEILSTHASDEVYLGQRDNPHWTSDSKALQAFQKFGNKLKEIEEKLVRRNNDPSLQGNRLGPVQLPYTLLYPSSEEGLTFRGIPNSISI

[8] = target: T2, Seed linoleate 13S-lipoxygenase-1 (Glycine max) (UniProt P08170); assay: Inhibition of soybean lipoxygenase at 100 uM
T2 sequence (whole entry): T1 sequence (P08170 whole entry)

With `Cc1c(C)c2c(c(C)c1O)CCC(C)(C(=O)O)O2` (stereo not given) the Activity [1] was 73.4%.

With `CC(Cc1ccc(O)c(O)c1)C(C)Cc1ccc(O)c(O)c1` (stereo not given) the Activity [2] was 72%, the Activity [3] was 82.6% and the Activity [4] was 81%. It also gave an Activity [5] of 68%.

For `COc1ccc2c(c1)c(CC(=O)O)c(C)n2C(=O)c1ccc(Cl)cc1` [INDOMETHACIN], the Inhibition (Rattus norvegicus) was 47%.

In the case of `COc1cc(/C=C/C(=O)c2c(C)[n+]([O-])c3ccccc3[n+]2[O-])cc(OC)c1OC`, the Activity [1] is reported as 99%, the Inhibition (Rattus norvegicus) is reported as 55.4% and the Activity [6] is reported as 100%. For the same molecule, the IC50 [7] was 42 µM.

Molecule `Cc1c(C(=O)/C=C/c2ccc3c(c2)OCO3)[n+]([O-])c2ccccc2[n+]1[O-]` has an Activity [1] of 96%, an Inhibition (Rattus norvegicus) of 4.5% and an IC50 [7] of 31 µM. The Activity [3] was 3% and the Activity [4] was 1%.

For `O=C(O)/C=C/c1ccc(O)c(O)c1`, the Activity [6] was 45%.

For `COc1cc(/C=C/C(=O)c2c(C)[n+]([O-])c3ccccc3[n+]2[O-])ccc1O`, the Activity [1] was 100%, the Inhibition (Rattus norvegicus) was 56.1% and the Activity [6] was 12.5%. The IC50 [7] was < 1 µM, the Activity [3] was 56% and the Activity [4] was 39.4%.

In the case of `COc1cc(C2CC(c3c(C)[n+]([O-])c4ccc(F)cc4[n+]3[O-])=NN2)cc(OC)c1OC` (stereo not given), the Activity [2] is reported as 67%, the Activity [1] is reported as 99.3% and the Inhibition (Rattus norvegicus) is reported as 23.4%. It also gave an IC50 [7] of 70 µM, an Activity [3] of 68% and an Activity [4] of 51.6%. It also gave an Activity [5] of 58%.

In the case of `COc1cc(C2CC(c3c(C)[n+]([O-])c4ccccc4[n+]3[O-])=NN2)cc(OC)c1OC` (stereo not given), the Activity [2] is reported as 46%, the Activity [1] is reported as 93.4% and the Inhibition (Rattus norvegicus) is reported as 24.3%. The inhibition [8] was 67.3%, the Activity [3] was 38% and the Activity [4] was 31%. It also gave an Activity [5] of 42%.

Work on `COc1cc(/C=C/C(=O)c2c(C)[n+]([O-])c3ccc(F)cc3[n+]2[O-])ccc1O` yielded an Activity [2] of 38.4%, an Activity [1] of 99.7% and an Inhibition (Rattus norvegicus) of 36.3%. It also gave an IC50 [7] of 85 µM, an Activity [3] of 52% and an Activity [4] of 45.3%. For the same molecule, the Activity [5] was 36.4%.

In the case of `COc1ccc2c(c1)[n+]([O-])c(C(=O)/C=C/c1ccc(O)c(OC)c1)c(C)[n+]2[O-]`, the Activity [2] is reported as 59%, the Activity [1] is reported as 97.3% and the Inhibition (Rattus norvegicus) is reported as 21.3%. The inhibition [8] was 55.7%, the Activity [3] was 70.4% and the Activity [4] was 51%. For the same molecule, the Activity [5] was 45%.
